In publication PMC5299597, “Evaluation of the safety, pharmacokinetics, pharmacodynamics, and drug-drug interaction potential of a selective Lp-PLA2 inhibitor (GSK2647544) in healthy volunteers” (International Journal of Clinical Pharmacology and …, 2016):
Each block holds one compound with its values, some of them ahead of it.

Columns and labels:
CYP3A4 [1] = biological target: T1, CYP3A4 (Homo sapiens, UniProt P08684); assay: clinical; details: plasma, oral; for AUC(0-t): AUC(0-t) of analyte; for AUC(0-t) / Cmax: geometric mean (CVb%); for Cmax: Cmax of analyte
T1 sequence (P08684 whole entry): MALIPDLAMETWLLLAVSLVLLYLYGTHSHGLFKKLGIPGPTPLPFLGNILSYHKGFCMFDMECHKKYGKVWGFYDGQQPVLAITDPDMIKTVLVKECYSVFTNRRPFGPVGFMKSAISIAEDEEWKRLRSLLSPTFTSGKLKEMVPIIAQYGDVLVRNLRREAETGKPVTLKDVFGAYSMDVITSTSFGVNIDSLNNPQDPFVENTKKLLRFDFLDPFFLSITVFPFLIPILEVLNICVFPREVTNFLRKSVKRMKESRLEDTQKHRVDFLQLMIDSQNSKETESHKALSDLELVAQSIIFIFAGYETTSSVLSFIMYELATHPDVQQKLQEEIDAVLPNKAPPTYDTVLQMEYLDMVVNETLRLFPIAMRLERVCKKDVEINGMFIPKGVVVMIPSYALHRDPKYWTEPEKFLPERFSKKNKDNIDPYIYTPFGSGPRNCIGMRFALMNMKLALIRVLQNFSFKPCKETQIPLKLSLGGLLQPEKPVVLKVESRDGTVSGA

CYP3A4 [2] = biological target: T1, CYP3A4; details: A1+S vs S, the 9 subjects who received both
[3] = Study 2: safety and tolerability (adverse events); details: by treatment: simvastatin 10 mg SD N = 12; GSK2647544 80 mg b.i.d. 7 days + simvastatin N = 9
[4] = set-up: method as in PMID 9461591; details: DM/HC pigs, vs untreated; cited from earlier work
[5] = phase 2a study; cited from earlier work
[6] = 10 mg, S = simvastatin 10 mg SD alone
[7] = A1+S = simvastatin 10 mg SD plus GSK2647544 80 mg b.i.d. for 7 days
[8] = P1+S = simvastatin 10 mg SD plus matched placebo b.i.d. for 7 days

AUC(0-t) (CYP3A4 [1]; [6]): 2.49 ng·h/mL
Cmax (CYP3A4 [1]; [6]): 0.504 ng/mL
Tmax (CYP3A4 [1]; 10 mg, tmax of analyte, median (range), S = simvastatin 10 mg SD alone): 4.04 h
AUC(0-t) (CYP3A4 [1]; [7]): 7.93 ng·h/mL
AUC(0-t) (CYP3A4 [1]; [8]): 2.14 ng·h/mL
Cmax (CYP3A4 [1]; [7]): 1.3 ng/mL
Cmax (CYP3A4 [1]; [8]): 0.351 ng/mL
Tmax (CYP3A4 [1]; median tmax of analyte, simvastatin alone): 4 h
Tmax (CYP3A4 [1]; median tmax of analyte, simvastatin in combination with GSK2647544): 6 h
Tmax (CYP3A4 [1]; tmax of analyte, median (range), A1+S = simvastatin 10 mg SD plus GSK2647544 80 mg b.i.d. for 7 days): 5.92 h
Tmax (CYP3A4 [1]; tmax of analyte, median (range), P1+S = simvastatin 10 mg SD plus matched placebo b.i.d. for 7 days): 5.92 h
Ratio of geometric means (90% CI), AUC(0-t) (CYP3A4 [2]): 3.09 (1.05, 9.03)
Ratio of geometric means (90% CI), AUC(0–∞) (CYP3A4 [2]): 1.50 (0.48, 4.71)
Ratio of geometric means (90% CI), Cmax (CYP3A4 [2]): 2.30 (1.46, 3.63)
Compound: CCC(C)(C)C(=O)O[C@H]1C[C@@H](C)C=C2C=C[C@H](C)[C@H](CC[C@@H](O)C[C@@H](O)CC(=O)O)[C@H]21 [Simvastatin acid, simvastatin acid]

Compound: CCC(C)(C)C(=O)O[C@H]1C[C@@H](C)C=C2C=C[C@H](C)[C@H](CC[C@@H]3C[C@@H](O)CC(=O)O3)[C@H]21 [Simvastatin, simvastatin]
Abdominal discomfort [3]: 0 n (%)
Abdominal distention [3]: 0 n (%)
Any AE [3]: 1 (8%) n (%)
Application site rash [3]: 1 (8%) n (%)
Arthragia [3]: 0 n (%)
Back pain [3]: 0 n (%)
Dizziness [3]: 0 n (%)
Eructation [3]: 0 n (%)
Headache [3]: 0 n (%)
Nasopharyngitis [3]: 0 n (%)
Pain in extremity [3]: 0 n (%)
Pollakiuria [3]: 1 (8%) n (%)

Compound: CCN(CC)CCN(Cc1ccc(-c2ccc(C(F)(F)F)cc2)cc1)C(=O)Cn1c(SCc2ccc(F)cc2)nc(=O)c2c1CCC2 [darapladib]
extent of immunoglobulin-G brain parenchyma penetration [4]: numerically reduced
total amount of brain amyloid-β peptide 1-42 deposition [4]: significantly lowered

Compound: COCCN1CCC(N(Cc2ccc(-c3ccc(C(F)(F)F)cc3)cc2)C(=O)Cn2c(SCc3cccc(F)c3F)cc(=O)c3ccccc32)CC1 [rilapladib]
cognitive outcomes [5]: improved cognitive outcomes
